Assay results reported in patent US20260315431A1, “NANOMATERIAL ENCAPSULATED BIOFILM INHIBITORS FOR DENTAL CARIES TREATMENT” (THE UAB RESEARCH FOUNDATION, priority 2023, published 2026).
“Also recorded” adds a separate entry of the source.

Tests used:
S. mutans UA159 [1] = experiment: Gnotobiotic rat model of dental caries (PEHA5 / HA5 study, Example 2); format: in vivo, gnotobiotic rats infected with S. mutans UA159; design: key to Buccal Mean Caries Scores (±SEM) E / Buccal Mean Caries Scores (±SEM) Ds / Buccal Mean Caries Scores (±SEM) Dm / Buccal Mean Caries Scores (±SEM) Dx / Sulcal Mean Caries Scores (± SEM) E / Sulcal Mean Caries Scores (± SEM) Ds / Sulcal Mean Caries Scores (± SEM) Dm / Sulcal Mean Caries Scores (± SEM) Dx / Proximal Mean Caries Scores (± SEM) E / Proximal Mean Caries Scores (± SEM) Ds: caries scored by the Keyes method; details: 100 μM
Excerpt: (§1) The effect of PEHA5 on S. mutans colonization and virulence was compared side-by-side with HA5 using a well-established gnotobiotic rat model of dental caries^[50-54]. A (vehicle+infection only) group was included as a negative control. All rats from the experimental groups and from the control group were colonized with S. mutans UA159. […] Similar reductions in caries scores were also observed in sulcal caries scores and proximal caries scores (Table 5). We were unable to record the effect of the treatment on dentinal moderate (Dm) and dentinal extensive (Dx) scores in the proximal area due to the absence of dentinal lesions in the control and treated groups.
We used Fischer 344 rats that were bred and maintained in trexler isolators for this experiment. Male and female rat pups were removed from isolators at 20 days of age and randomly assigned into treatment groups of 5 rats/group in cages with filter tops. Rats were then infected with S. mutans UA159 strain by oral swabbing daily for four consecutive days with a fresh overnight culture of S. mutans UA159. Rats were provided with caries promoting Teklad Diet 305 containing […] (Harlan Laboratories, Inc., Indianapolis, IN) and sterile drinking water ad libitum. Oral swabs were taken 5 days post-infection and plated on Todd Hewitt (TH) agar plates and incubated at 37° C. in an environment of 5% CO2 in the air to confirm colonization. Rats were weighed at weaning and then weekly throughout the experiment. One-week post-infection, the molars of the rats were brushed twice daily for 4 weeks with the test compounds using camel-hair brushes. Four treatment groups used in this study were: 1) HA5 (100 μM); 2) […] (100 μM); 3) NaF (250 ppm); and 4) infected untreated rats. Drinking water was withheld for 60 min following each treatment with the compound. Animals were weighed at weaning and at the termination of the experiment. On day 60, the rats were sacrificed using CO2 followed by cervical dislocation or bilateral thoracotomy. The mandibles were surgically removed and cleaned of excess tissue to assess the level of bacteria present and the extent of caries formation. The right mandible from each rat was placed in a tube containing phosphate buffer (3 mL), placed on ice and sonicated (10 sec) to release bacteria from the molars. Each sample was serially diluted, plated on blood (BAP) and mitis-salivarius (MS) agar plates and incubated in an environment of 5% CO2 in air at 37° C. to quantify the level of total bacteria and S. mutans present in the plaque. The right and left mandibles from each rat were then placed in 95% ethanol for 24 h. The mandibles will be cleaned and stained overnight with murexide solution. After drying, the mandibles were sectioned and scored for caries activity using the Keyes method Caries scores were recorded for the buccal, sulcal and proximal molar surfaces individually so that differences among the surfaces can be distinguished. Statistical significance in the mean caries scores, colony-forming units (CFU)/mandible and body weights between groups of rats were determined by one-way analysis of variance (ANOVA) with the Tukey-Kramer multiple comparison test using the InStat program (GraphPad Prism 10.0.2.). When determining the statistical significance between the two groups, an unpaired t-test was applied. Differences between groups were considered significant at a P-value<0.05.

GtfB = GtfB (Streptococcus mutans, UniProt P08987); experiment: HA5/GtfB X-ray co-crystal structure; format: binding; details: catalytic domain of GtfB
Chain of GtfB (P08987 265-1143): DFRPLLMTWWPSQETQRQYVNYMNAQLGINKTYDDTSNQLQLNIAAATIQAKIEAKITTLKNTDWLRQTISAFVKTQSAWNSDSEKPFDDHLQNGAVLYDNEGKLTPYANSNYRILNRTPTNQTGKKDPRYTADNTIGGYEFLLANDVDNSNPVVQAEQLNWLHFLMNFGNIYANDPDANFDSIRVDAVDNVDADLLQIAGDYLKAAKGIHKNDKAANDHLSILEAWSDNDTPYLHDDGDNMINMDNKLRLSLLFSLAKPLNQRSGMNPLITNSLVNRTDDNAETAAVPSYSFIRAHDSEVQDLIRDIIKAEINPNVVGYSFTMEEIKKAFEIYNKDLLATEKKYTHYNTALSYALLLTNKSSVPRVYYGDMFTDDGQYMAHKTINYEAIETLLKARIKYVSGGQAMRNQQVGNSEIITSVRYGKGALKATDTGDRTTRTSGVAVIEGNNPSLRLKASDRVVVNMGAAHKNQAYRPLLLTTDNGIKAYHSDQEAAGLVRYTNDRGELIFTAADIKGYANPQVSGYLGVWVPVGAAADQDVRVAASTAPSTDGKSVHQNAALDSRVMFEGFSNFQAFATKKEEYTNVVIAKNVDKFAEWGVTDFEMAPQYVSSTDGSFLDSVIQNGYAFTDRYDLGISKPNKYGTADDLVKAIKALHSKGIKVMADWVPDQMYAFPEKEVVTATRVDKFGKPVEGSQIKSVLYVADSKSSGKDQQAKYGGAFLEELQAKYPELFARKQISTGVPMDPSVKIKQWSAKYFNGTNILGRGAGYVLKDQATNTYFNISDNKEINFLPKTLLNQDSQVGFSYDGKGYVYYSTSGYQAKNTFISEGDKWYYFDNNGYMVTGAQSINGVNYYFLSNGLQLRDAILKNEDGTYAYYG

S. mutans UA159 [2] = experiment: Planktonic growth, S. mutans UA159 (OD470); format: cell-based, Streptococcus mutans
Procedure: The bacterial strains, S. mutans UA159, S. gordonii DL1, and S. sanguinis SK36 were inoculated statically at 37° C. under 5% CO2 in Todd Hewitt Broth (THB) for 24 h. The cultures were then diluted with fresh THB (1:5) and reinoculated until optical density at 470 nm (OD470) reached 1. The optical density was read using BioTek 800TS microplate reader at 470 nm for bacterial growth and 562 nm for biofilm stained with crystal violet. Data was plotted in Graphpad Prism9.
(§2) S. mutans, S. gordonii, and S. sanguinis growth assays. Effects of compounds on S. mutans and commensal bacterial growth were evaluated using the growth assay as described^69. S. mutans UA159, S. gordonii DL1, S. sanguinis SK36, cultures were grown for 24 h under 5% CO2 at 37° C. These cultures were then reinoculated with fresh THB (1:5) until OD470=1 when the bacteria were ready to be used. Different concentrations of the inhibitor were assayed in chemically defined media (CDM) with 1% of the bacteria, 1% sucrose and 1% DMSO in 96 well plates. The 96 well plates were incubated under 5% CO2 at 37° C. for 16 h. Growth of the bacteria was read after 16 h at OD470. Each assay was carried out at least in triplicate.
All bacterial strains (S. mutans UA159, S. gordonii DL1, and S. sanguinis SK36) were inoculated statically at 37° C. under 5% CO2 environment in Todd Hewitt Broth (THB) for 24 h^[61]. The cultures were then diluted with fresh THB (1:5) and reinoculated until the optical density at 470 nm reaches 1. The optical density was read using BioTek 800 TS absorbance reader at 470 nm for bacterial growth and 562 nm for biofilm stained with crystal violet. Data was plotted in Prism 10.0.2.
as §2, with “Effects” for “S. mutans, S. gordonii, and S. sanguinis growth assays. Effects”, “PEHA5, PEHA6, HA5 or HA6” for “compounds”, “described^[62].” for “described^69.”, “PEHA5, PEHA6, HA5 or HA6” for “inhibitor”, “CDM” for “chemically defined media (CDM)”

[3] = Body weight of animals, PEHA5 / HA5 study; format: in vivo, gnotobiotic rats; details: 100 μM
Excerpt: as §1
We used Fischer 344 rats that were bred and maintained in trexler isolators for this experiment. Male and female rat pups were removed from isolators at 20 days of age and randomly assigned into treatment groups of 5 rats/group in cages with filter tops. […] Each sample was serially diluted, plated on blood (BAP) and mitis-salivarius (MS) agar plates and incubated in an environment of 5% CO2 in air at 37° C. to quantify the level of total bacteria and S. mutans present in the plaque. […] After drying, the mandibles were sectioned and scored for caries activity using the Keyes method Caries scores were recorded for the buccal, sulcal and proximal molar surfaces individually so that differences among the surfaces can be distinguished. […]

Q: For `O=C1/C(=C/c2cc(O)c(O)cc2O)Oc2ccccc21` [HA5, 2-[(2′,4′,5′-Trihydroxyphenyl)methylidene]-2,3-dihydro-1-benzofuran-3-one], which “effect on bacterial colonization” value (S. mutans UA159 [1]; 4-week treatment) is on record?
A: did not affect bacterial colonization significantly

Q: What about the “reduction in caries scores” value (S. mutans UA159 [1]; 4-week treatment) of the same compound?
A: significant reductions in buccal caries scores

Q: What about the “CFU/mL BAP” value (S. mutans UA159 [1]; Blood agar plate) of the same compound?
A: 5.2 ± 1.4 CFU/mL (×10^5)

Q: And the “CFU/mL MS” value (S. mutans UA159 [1]; Mitis-Salivarius agar)?
A: 5.5 ± 2.6 CFU/mL (×10^5)

Q: What about the “Buccal Mean Caries Scores (±SEM) Dx” value (S. mutans UA159 [1]; dentinal extensive, 4 weeks) of the same compound?
A: 1.4 ± 0.4

Q: What about the “Sulcal Mean Caries Scores (± SEM) Dx” value (S. mutans UA159 [1]; dentinal extensive, 4 weeks) of the same compound?
A: 4.8 ± 0.9

Q: What about the “Buccal Mean Caries Scores (±SEM) Dm” value (S. mutans UA159 [1]; dentinal moderate, 4 weeks) of the same compound?
A: 2.8 ± 0.5

Q: And the “Sulcal Mean Caries Scores (± SEM) Dm” value (S. mutans UA159 [1]; dentinal moderate, 4 weeks)?
A: 9.4 ± 0.5

Q: And the “Buccal Mean Caries Scores (±SEM) Ds” value (S. mutans UA159 [1]; dentinal slight, 4 weeks)?
A: 6.4 ± 1.0

Q: What about the “Proximal Mean Caries Scores (± SEM) Ds” value (S. mutans UA159 [1]; dentinal slight, 4 weeks) of the same compound?
A: 3.4 ± 0.6

Q: What about the “Sulcal Mean Caries Scores (± SEM) Ds” value (S. mutans UA159 [1]; dentinal slight, 4 weeks) of the same compound?
A: 15.0 ± 0.9

Q: And the “Buccal Mean Caries Scores (±SEM) E” value (S. mutans UA159 [1]; enamel, 4 weeks)?
A: 9.0 ± 0.6

Q: What about the “Proximal Mean Caries Scores (± SEM) E” value (S. mutans UA159 [1]; enamel, 4 weeks) of the same compound?
A: 5.2 ± 0.5

Q: What about the “Sulcal Mean Caries Scores (± SEM) E” value (S. mutans UA159 [1]; enamel, 4 weeks) of the same compound?
A: 20.6 ± 0.8

Q: What about the “binding in HA5/GtfB co-crystal structure” value (GtfB) of the same compound?
A: binding in the catalytic site of GtfB; also recorded: does not show any covalent bond

Q: And the “planktonic growth of S. mutans” value (S. mutans UA159 [2]; 25 μM)?
A: did not affect the planktonic growth

Q: And the “planktonic growth of S. mutans” value (S. mutans UA159 [2]; 50 μM)?
A: did not inhibit the planktonic growth; also recorded: no effect on growth; also recorded: did not inhibit the growth significantly

Q: What about the “growth of S. mutans” value (S. mutans UA159 [2]; 50 μM and 100 μM) of the same compound?
A: did not inhibit S. mutans growth

Q: What about the Weight [3] of the same compound?
A: 145 ± 14 g

Q: And the “weight loss” value ([3]; 4-week treatment)?
A: did not experience any weight loss

Q: For `O=C1/C(=C/c2cc(O)c(O)c(O)c2)Oc2ccccc21` [HA6, 2-[(3′,4′,5′-Trihydroxyphenyl)methylidene]-2,3-dihydro-1-benzofuran-3-one], which “viability of S. mutans” value (S. mutans UA159 [2]; 25 μM and 50 μM) is on record?
A: did not inhibit S. mutans viability

Q: What about the “planktonic growth of S. mutans” value (S. mutans UA159 [2]; 50 μM) of the same compound?
A: did not inhibit the planktonic growth; also recorded: no effect on growth; also recorded: inhibited the planktonic growth slightly
